Laboratory results reported in patent US9714245B2, “Carboline compounds usable in the treatment of neurodegenerative diseases” (ALZPROTECT, priority 2013, dated 2017).

Tests used:
[1] = system: AICD; test: Quantification of AICD by Western blot in SY5Y-APPWT cells; assay type: cell-based, Human; settings: compared to a control with a value of 100
Experimental: (§1) Quantifications of APP-CTFs and AICD
(§2) After treatment, SY5Y-APP^WT cells were scrapped and lysed in 1× Lysis Buffer (250 mM NaCl, 50 mM Tris, pH 8.8, 5 mM EDTA, 2.5% Triton X-100, 1% Deoxycholate, 0.1% SDS). For the Western blotting, an equal amount of total proteins (20 μg/lane) was loaded on a 16.5% Tris-Tricine or 8-16% Tris-Glycine polyacrylamide gel.
(§3) SDS-polyacrylamide gel electrophoresis (PAGE) was performed using the Criterion™ Tris-Tricine-precast or Bis-Tris-precast criterion gels (Bio-Rad Bioresearch division). Proteins were transferred to a […] nitrocellulose membrane (Hybond, Amersham Biosciences) at 2.5 mA/cm2 per gel using the Criterion™ Blotter system (Amersham Biosciences), according to the manufacturer's instructions. Proteins were reversibly stained with Ponceau Red in order to check the quality of the transfer of protein. The membranes were blocked in 25 mM Tris-HCl pH 8.0, 150 mM NaCl, 0.1% Tween-20 (v/v) and 5% (w/v) of skimmed milk for 30 min. Membranes were incubated overnight at 4° C. with appropriate dilution of the primary antibodies, and were incubated for 1 h at room temperature with secondary antibody. […] Quantifications were calculated with Image J software (NIH) and the data were collected using Excel Software (Microsoft). The loading variations between Western blot lanes were normalized according to the tubulin signal. Quantification of CTFα and AICD were compared to control conditions (considered as 100 in arbitrary units) and are presented for two concentrations of the drug: 1 and 10 μM.

[2] = system: CTFα; test: Quantification of APP-CTFα by Western blot in SY5Y-APPWT cells; assay type: cell-based, Human; settings: compared to a control with a value of 100
Experimental: as §1, §2, §3

[3] = Cytotoxicity evaluation (MTS assay); assay type: cell-based, Human; settings: human, SY5Y-APPWT neuroblastoma cells (expressing APP); SY5Y-APPWT cells, 24 h treatment, MTS
Experimental: Human neuroblastoma cell line SY5Y-APP^WT was used to assess the cytotoxic effects of each compound. SY5Y-APP^WT cells were seeded at 20000 cells/well onto 96-well plates and were cultured in Dulbecco's modified Eagle medium (DMEM, Invitrogen) supplemented with 10% fetal calf serum (PAA), 2 mM L-glutamine (Invitrogen), 1 mM non-essential amino acids (Invitrogen), 50 units/ml penicillin/streptomycin (Invitrogen), and 200 μg G418=geneticin (Invitrogen) (selection for cells expressing APP) in a 5% CO2 humidified incubator at 37° C. After 24 h, the cells were washed and incubated with the compound at 0.1; 0.3; 1; 3; 10; 30 and 100 μM or with DMSO as control diluted in the same culture medium at 37° C. in 5% CO2. After 24 h of treatment, cytotoxicity was determined by using colorimetric MTS assay (CellTiter 96® Aqueous One Solution Cell Proliferation Assay-MTS Promega) according to the protocol of the manufacturer. Absorbance was read at 490 nm and results were expressed as % from control condition considered as 100%.

[4] = system: sAPPα; test: Soluble APPα quantification (ELISA); assay type: cell-based, Human; settings: 24 h, control considered as 100
Experimental: Soluble APPα Quantification
Human neuroblastoma cell line SKNSH-SYSY APP′ was cultured in Dulbecco's modified Eagle medium (Invitrogen) supplemented with 10% fetal calf serum (PAA), 2 mM L-glutamine (Invitrogen), 1 mM non-essential amino acids (Invitrogen), 50 units/ml penicillin/streptomycin (Invitrogen), and 200 μg G418=geneticin (Invitrogen) (selection for cell expressing APP) in a 5% CO2 humidified incubator at 37° C. Cells were counted and seed at 400000 cells/well into a 12-wells plate for 24 h. The day after, cells were treated with 700 μL/well of drug at 0.3; 1; 3 and 10 μM and incubated for 24 h in a 5% CO2 incubator at 37° C. After treatment, culture medium samples were collected and stored at −80° C. until analysis. Samples corresponding to the 1 and 10 μM treatment were centrifuged 1500 rpm for 5 min at 4° C. sAPPα quantification by ELISA was done with Human sAPPα Assay Kit-IBL (Cat#27734) in accordance with manufacturer's protocol. Samples were diluted at 1:150 in the diluent buffer provided in the kit. Each sample was loaded in duplicate onto the 96 well-plate. Results are expressed in ng/ml and then compared to control conditions (considered as 100 in arbitrary units) and are presented for two concentrations of the drug: 1 and 10 μM.

[5] = molecular target: T1, HIS-tagged valosin-containing protein/p97 (VCP/p97) (Homo sapiens, UniProt P55072); test: VCP interaction assay (competition with biotinylated probe 4.7); assay type: binding; settings: compound 60 μM against biotinylated probe 4.7 20 μM
T1 construct: purchased TebuBio
T1 sequence (P55072 whole entry): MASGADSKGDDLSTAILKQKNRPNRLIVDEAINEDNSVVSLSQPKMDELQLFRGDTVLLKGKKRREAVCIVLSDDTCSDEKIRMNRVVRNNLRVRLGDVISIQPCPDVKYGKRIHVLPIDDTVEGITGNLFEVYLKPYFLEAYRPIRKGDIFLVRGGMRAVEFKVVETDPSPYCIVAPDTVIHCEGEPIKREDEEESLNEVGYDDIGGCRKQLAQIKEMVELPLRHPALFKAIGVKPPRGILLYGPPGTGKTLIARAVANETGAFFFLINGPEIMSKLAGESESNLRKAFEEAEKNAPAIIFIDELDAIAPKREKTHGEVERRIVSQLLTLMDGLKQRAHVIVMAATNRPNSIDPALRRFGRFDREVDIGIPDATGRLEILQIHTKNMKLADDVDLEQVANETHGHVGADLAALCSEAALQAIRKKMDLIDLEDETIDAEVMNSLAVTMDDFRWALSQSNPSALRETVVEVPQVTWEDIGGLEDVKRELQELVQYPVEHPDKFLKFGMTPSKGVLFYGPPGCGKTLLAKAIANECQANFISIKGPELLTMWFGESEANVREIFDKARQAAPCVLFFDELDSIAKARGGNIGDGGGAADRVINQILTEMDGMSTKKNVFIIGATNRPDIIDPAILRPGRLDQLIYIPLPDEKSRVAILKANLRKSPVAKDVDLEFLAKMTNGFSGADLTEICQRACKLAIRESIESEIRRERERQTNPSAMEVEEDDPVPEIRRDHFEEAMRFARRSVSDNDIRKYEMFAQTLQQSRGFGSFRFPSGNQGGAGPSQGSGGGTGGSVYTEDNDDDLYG
Experimental: Physical interaction between HIS-tagged valosin-containing protein/p97 (VCP/p97) (TebuBio) and biotinylated probe 4.7 was investigated by Enzyme-Linked Assay (ELA) based on HIS-Select® High Sensitivity Nickel coated plates, used following manufacturer's recommendations (Sigma Aldrich). Other chemical compounds were tested in competition with the biotinylated probe 4.7 in this system. Briefly, nickel beads were incubated overnight at 4° C. with 2% casein blocking solution. After a three-time rinse with wash buffer (0.05% Tween20 in phosphate buffer saline), HIS-tagged VCP/p97 protein (5 μg/ml in PBS) was incubated with nickel beads for 90 min at 25° C. Then, the plate was washed three times. Chemical compounds (60 μM) were incubated 10 min at 25° C. before addition of biotinylated probe 4.7 (20 μM) 30 min at 25° C. After five washes, streptavidin-peroxidase (2 μg/ml) was added during 1 h at 25° C., followed by the peroxidase substrate addition 30 min at RT. Reaction was stopped with 0.5M H2SO4 solution and the optical density was read at 450 nm using a microplate reader (VICTOR X4 Wallac, 2030-0040, PerkinElmer). Competition efficiency was quantified by the loss of signal compared to the control condition.

[6] = system: CTFα; test: In vivo acute treatment, CTFα in brain tissue; design: species or system C57Bl6 mice; settings: acute p.o. 24 h
Experimental: Female C57Bl6 mice of 4 month-old were treated p.o. (gavage) with either vehicle (control) or drug at 3; 6; 12.5 and 25 mg/kg (n=6 per group) for 24 h. The product was administered with a disposable Rodent Feeding Tube ECIMED Ref#V0104030 (4 mm×30 mm). After 24 h, mice were sacrificed and their troncal blood was collected and stored at 4° C. Brains were immediately removed to dissect the Frontal Cortex, the Cortex around the Hippocampus and the Hippocampus. These areas were stored at −80° C. until use. Blood was then centrifuged at 2100×g for 5 min. Resulting plasma was used to quantify the circulating drug and brain tissues were used for biochemical determinations (PFC: prefrontal cortex and HIP: hippocampus).

CC(C)CN(CCCN1CCN(CCCN2CCc3[nH]c4ccc(F)cc4c3C2)CC1)CC(C)C [Compound 3.1d, N,N-diisobutyl-3-(4-(3-(8-fluoro-1,3,4,5-tetrahydro-1H-pyrido[4,3-b]indol-2-yl)propyl)piperazin-1-yl)propylamine]
AICD (10 μM) [1]: 84225 arbitrary units | CTFα (10 μM) [2]: 1011 arbitrary units | CC50 at 24 h [3]: 15 µM | sAPPα (10 μM) [4]: 166 arbitrary units | VCP (competition efficiency, loss of signal compared to the control) [5]: 96% | HIP CTFα (6-12.5 mg/kg), first line ([6]; hippocampus, 6 mg/kg (first of the two doses in the head)): 110 | HIP CTFα (6-12.5 mg/kg), second line ([6]; hippocampus, 12.5 mg/kg (second of the two doses in the head)): 115 | PFC CTFα (6-12.5 mg/kg), first line ([6]; prefrontal cortex, 6 mg/kg (first of the two doses in the head)): 90 | PFC CTFα (6-12.5 mg/kg), second line ([6]; prefrontal cortex, 12.5 mg/kg (second of the two doses in the head)): 90
